Results published in publication PMC7228038 (Journal of medicinal chemistry, 2019).

Tests used:
[1] = Oxidative metabolic stability in murine microsomes; conditions: for CLint scaled at 0.8 µM: mouse, microsomes
DCN1-UBE2M interaction = DCN1-UBE2M interaction (Homo sapiens, UniProt Q96GG9); assay: biochemical; assay type: binding; conditions: for Activity in TR-FRET binding assay, in words: maximum tested concentration 15 μM, values in Supplementary Tables
HCC95 cells = conditions: dose-response up to 30 μM, 5 hours
DCN5 = target: T1, DCN5 (Homo sapiens, UniProt Q9BTE7); assay: Pulse-chase assay of NEDD8 transfer, DCN5 stimulated; assay type: biochemical; conditions: 10 μM; NEDD8 transfer from UBE2M to CUL2
T1 sequence (Q9BTE7 1-237): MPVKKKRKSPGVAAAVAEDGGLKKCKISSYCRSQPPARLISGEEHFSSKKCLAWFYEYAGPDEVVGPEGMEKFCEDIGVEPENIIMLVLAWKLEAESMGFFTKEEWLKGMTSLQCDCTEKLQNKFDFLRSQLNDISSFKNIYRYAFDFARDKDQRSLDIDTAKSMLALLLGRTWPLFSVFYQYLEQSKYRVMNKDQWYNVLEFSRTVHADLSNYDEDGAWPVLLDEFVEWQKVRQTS

DCN4 = target: T2, DCN4 (Homo sapiens, UniProt Q92564); assay: Pulse-chase assay of NEDD8 transfer, DCN4 stimulated; assay type: biochemical; conditions: 10 μM; NEDD8 transfer from UBE2M to CUL2
T2 sequence (Q92564 1-292): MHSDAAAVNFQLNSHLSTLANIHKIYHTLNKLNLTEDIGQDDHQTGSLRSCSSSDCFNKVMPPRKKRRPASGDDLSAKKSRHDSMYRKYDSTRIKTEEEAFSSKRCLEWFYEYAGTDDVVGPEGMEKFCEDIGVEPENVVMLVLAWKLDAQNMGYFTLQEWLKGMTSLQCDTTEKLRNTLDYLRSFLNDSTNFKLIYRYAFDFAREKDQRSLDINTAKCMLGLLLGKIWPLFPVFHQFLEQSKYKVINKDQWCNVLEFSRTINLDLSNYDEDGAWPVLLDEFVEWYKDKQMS

DCN3 = target: T3, DCN3 (Homo sapiens, UniProt Q8IWE4); assay: Pulse-chase assay of NEDD8 transfer, DCN3 stimulated; assay type: biochemical; conditions: 10 μM; NEDD8 transfer from UBE2M to CUL2
T3 sequence (Q8IWE4 1-304): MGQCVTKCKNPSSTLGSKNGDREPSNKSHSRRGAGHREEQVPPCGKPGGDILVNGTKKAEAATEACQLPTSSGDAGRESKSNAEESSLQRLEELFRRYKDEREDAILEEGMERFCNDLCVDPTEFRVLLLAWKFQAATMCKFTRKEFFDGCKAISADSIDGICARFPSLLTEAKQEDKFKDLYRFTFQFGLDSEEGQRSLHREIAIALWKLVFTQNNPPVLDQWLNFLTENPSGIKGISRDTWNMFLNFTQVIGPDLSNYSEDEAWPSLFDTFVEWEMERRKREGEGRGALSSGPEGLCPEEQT

DCN2 = DCN2 (Homo sapiens, UniProt Q6PH85); assay: Pulse-chase assay of NEDD8 transfer, DCN2 stimulated; assay type: biochemical; conditions: 10 μM; NEDD8 transfer from UBE2M to CUL2
DCN2, sequence (Q6PH85 whole entry): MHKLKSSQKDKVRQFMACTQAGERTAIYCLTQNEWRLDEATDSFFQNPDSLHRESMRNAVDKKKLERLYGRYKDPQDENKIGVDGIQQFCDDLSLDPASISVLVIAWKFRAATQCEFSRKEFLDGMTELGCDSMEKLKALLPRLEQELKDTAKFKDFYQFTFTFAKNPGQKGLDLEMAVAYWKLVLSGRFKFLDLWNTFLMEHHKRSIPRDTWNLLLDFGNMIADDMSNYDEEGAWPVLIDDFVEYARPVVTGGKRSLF

[2] = tested on: cullin neddylation in CAL33 cells; conditions: 10 μM (MLN4924 1 μM), 48 hours, most pronounced on CUL1 and CUL3
[3] = tested on: cullin neddylation in HCC95 cells; conditions: 10 μM (MLN4924 1 μM), 48 hours, most pronounced on CUL1 and CUL3

DCN1-UBE2M interaction, sequence (Q96GG9 whole entry): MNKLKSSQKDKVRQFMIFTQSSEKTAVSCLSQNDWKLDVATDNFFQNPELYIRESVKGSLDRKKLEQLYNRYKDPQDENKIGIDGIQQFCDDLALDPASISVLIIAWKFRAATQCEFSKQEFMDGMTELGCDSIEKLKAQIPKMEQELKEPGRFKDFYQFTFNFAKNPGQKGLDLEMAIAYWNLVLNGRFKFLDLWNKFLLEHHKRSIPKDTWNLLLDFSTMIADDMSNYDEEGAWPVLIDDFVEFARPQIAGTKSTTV

With `Cc1cccc(C(=O)N[C@@H]2C(=O)Nc3c(c(C)nn3-c3ccccc3)[C@@H]2c2ccc(F)cc2)c1` (racemic) [Compound 3] the CLint scaled at 0.8 µM [1] was 50.3 ± 5 mL/min/kg and the “Murine microsomal stability compared with that previously reported for NAcM-OPT” value ([1]; murine microsomes, relative to NAcM-OPT) was ≤ 2 fold.
`Cc1cccc(C(=O)N[C@@H]2C(=O)Nc3c(c(C)nn3C3CCCC3)[C@@H]2c2ccc(F)cc2)c1` (racemic) [Compound 24] showed a CLint scaled at 0.8 µM [1] of 116 ± 10.7 mL/min/kg.
For `CCn1nc(C)c2c1NC(=O)[C@@H](NC(=O)c1cccc(C)c1)[C@H]2c1ccc(F)cc1` (racemic) [Compound 65], the CLint scaled at 0.8 µM [1] was 89.7 ± 4.7 mL/min/kg and the “Activity in TR-FRET binding assay, in words” value (“Activity” for short) (DCN1-UBE2M interaction) was “roughly equipotent to the phenyl derivative (3)”.
In the case of `Cc1cccc(C(=O)N[C@H]2C(=O)Nc3c(c(C)nn3-c3ccccc3)[C@@H]2c2ccc(F)cc2)c1` (racemic) [Compound 87, N-((4S,5R)-4-(4-fluorophenyl)-3-methyl-6-oxo-1-phenyl-4,5,6,7-tetrahydro-1H-pyrazolo[3,4-b]pyridin-5-yl)-3-methylbenzamide], the “Effect on reactive oxygen species (DCFDA)” value (HCC95 cells) is reported as “neither 27, 87, nor NAcM-OPT have any measurable effects on reactive oxygen species” and the “Activity” value (DCN1-UBE2M interaction) is reported as “inactive”.
`Cc1ccc([C@H]2c3c(C)nn(-c4ccccc4)c3NC(=O)[C@H]2NC(=O)c2cccc(C)c2)cc1` (relative stereo) [Compound 1, 3-methyl-N-(rel-(4S,5S)-3-methyl-6-oxo-1-phenyl-4-(p-tolyl)-4,5,6,7-tetrahydro-1H-pyrazolo[3,4-b]pyridin-5-yl)benzamide] showed a CLint scaled at 0.8 µM [1] of 160 ± 5 mL/min/kg.
With `CCN1C(=O)[C@@H](NC(=O)c2cccc(C)c2)[C@@H](c2ccc(F)cc2)c2c(C)nn(-c3ccccc3)c21` (relative stereo) [Compound 27, N-(rel-(4S,5S)-7-ethyl-4-(4-fluorophenyl)-3-methyl-6-oxo-1-phenyl-4,5,6,7-tetrahydro-1H-pyrazolo[3,4-b]pyridin-5-yl)-3-methylbenzamide] the “Inhibition of DCN5 stimulated cullin neddylation (pulse-chase)” value (DCN5) was “not inhibited”, the “Inhibition of DCN4 stimulated cullin neddylation (pulse-chase)” value (DCN4) was “not inhibited” and the CLint scaled at 0.8 µM [1] was 44.9 ± 3.7 mL/min/kg. For the same compound, the “Inhibition of DCN3 stimulated cullin neddylation (pulse-chase)” value (DCN3) was “not inhibited” and the “Inhibition of DCN2 stimulated cullin neddylation (pulse-chase)” value (DCN2) was “inhibiting”.
In the case of `Cc1nn(-c2ccccc2)c2c1[C@H](c1ccc(F)cc1)[C@H](NC(=O)c1cccc(C(F)(F)F)c1)C(=O)N2` [Compound 11], the IC50 (DCN1-UBE2M interaction) is reported as 3.5 ± 0.5 µM.
In the case of `Cc1cccc(NC(=O)[C@@H]2C(=O)Nc3c(c(C)nn3-c3ccccc3)[C@@H]2c2ccc(F)cc2)c1` [Compound 128], the “Activity” value (DCN1-UBE2M interaction) is reported as “not tolerated”.
With `Cc1nn(-c2ccccc2)c2c1[C@H](c1ccc(F)cc1)[C@H](C(=O)Nc1ccc(Cl)c(Cl)c1)C(=O)N2` [Compound 131] the “Activity” value (DCN1-UBE2M interaction) was “not tolerated”.
For `NS(=O)(=O)OC[C@@H]1C[C@@H](n2ccc3c(N[C@H]4CCc5ccccc54)ncnc32)C[C@@H]1O` [MLN4924], the “Inhibition of steady-state cullin neddylation (immunoblot), CAL33” value [2] was “complete blockade of neddylation” and the “Inhibition of steady-state cullin neddylation (immunoblot), HCC95” value [3] was “complete blockade of neddylation”.
In the case of `CCCCN1CCC(N(Cc2ccccc2)C(=O)Nc2ccc(Cl)c(Cl)c2)CC1` [NAcM-OPT, reference compound], the “Effect on reactive oxygen species (DCFDA)” value (HCC95 cells) is reported as “neither 27, 87, nor NAcM-OPT have any measurable effects on reactive oxygen species”.
